{
  "source": "patent US6686382B2",
  "about": "“Sulfonamides and derivatives thereof that modulate the activity of endothelin” (Encysive Pharmaceuticals Inc., priority 1999, dated 2004)",
  "key": {"[1]": {"test_system": "rats exposed to acute hypoxia", "assay": "Acute hypoxia model, mean pulmonary arterial pressure (MPAP) increase", "conditions": "in vivo model, rat", "description": "The chamber was gassed by adding N2 to the chamber intermittently from a liquid N2 reservoir. A baralyme (Allied Health Care Products, St. Louis, Mo., USA) CO2 scrubber kept the CO2 concentration <0.2%. Relative humidity within the chamber was kept <70% with anhydrous CaSO4. Boric acid was used to keep NH3 levels within the chamber at a minimum. See, Tilton et al. (2000) Pulm. Pharm. Ther. 13:87-97. In the initial experiment, effects of a test compound were assessed on mean pulmonary arterial pressure (MPAP) of rats subsequently exposed to acute hypoxia 90 min in duration. […] All catheters were connected to polyethylene (PE 20) tubing, and were exteriorized at the back of the neck by a stainless steel wire (0.018 in. diam) tunneled subcutaneously. Two days later, MPAP was recorded through the femoral and pulmonary arterial cannulas via transducers coupled to a polygraph recorder. […] Pulmonary pressure rapidly returned toward baseline values when this group was returned to room air at the end of the experiment."}, "[2]": {"test_system": "DOCA-salt hypertensive rat", "assay": "Deoxycorticosterone acetate (DOCA)-salt hypertensive rat model", "conditions": "in vivo", "description": "Selected compounds disclosed herein have been tested for activity in the deoxycorticosterone acetate (DOCA)-salt hypertensive rat model. To perform these tests, silastic MDX4-4210 elastomer implants containing 47 mg (DOCA) were prepared according to the method of Ornmsbee et al. ((1973) the J. Pharm. Sci. 62:255-257). Briefly, DOCA is incorporated into silicon rubber implants for sustained release. To prepare the implants the DOCA is incorporated into unpolymerized silicone rubber, catalyst is added and the mixture is cast in a hemicylindrical shape.\nSprague Dawley rats (7-8 weeks old) were unilaterally nephrectomized under ketamine anesthesia and a DOCA-implant was placed on the left lateral dorsal abdomen of the animal. The rats were allowed to recover for three weeks. During recovery they were permitted free access to normal rat chow and 0.9% NaCl drinking solution in place of drinking water. The rats develop hypertension within 3 weeks. […]\nOn the day of experimentation, catheters were inserted under brevital anesthesia into the right femoral artery for measurement of blood pressure, and into the right femoral vein for administration of a selected compound. The animals were placed in a restrainer and allowed to recover for a minimum of 60 min or until a steady mean arterial blood pressure was recorded. […] Blood pressure was recorded continuously for a further 10 hrs."}},
  "data": [
    {"smiles": "CC(=O)c1cc(C)cc(C)c1NC(=O)c1sccc1S(=O)(=O)Nc1onc(C)c1C", "note": "[Compound 7, N-(2-acetyl-4,6-dimethylphenyl)-3-{[(3,4 dimethyl-5-isoxazolyl)amino]sulfonyl}-2-thiophenecarboxamide]", "values": [
      {"measurement": "Acute Hypoxia: dose to achieve 50% inhibition of mean pulmonary artery pressure increase", "setting": "[1]; listed as N-(2-acetyl-4,6-dimethylphenyl)-3-{[(3,4 dimethyl-5-isoxazolyl)amino]-sulfonyl}-", "value": 1, "unit": "mg/kg"},
      {"measurement": "Acute Hypoxia: dose to achieve 50% inhibition of mean pulmonary artery pressure increase", "setting": "[1]; listed as N-(2-acetyl-4,6-dimethylphenyl)-3-{[(3,4 dimethyl-5-isoxazolyl)amino]sulfonyl}-2", "value": "approximately 1 mg/kg"},
      {"measurement": "effect on blood pressure in the hypertensive rat model", "setting": "[2]", "value": "effective in decreasing blood pressure"}
    ]},
    {"smiles": "Cc1cc(C)c(NC(=O)c2sccc2S(=O)(=O)Nc2onc(C)c2Cl)c(Cl)c1", "note": "[Compound 34, N-(2-chloro-4,6-dimethylphenyl)-3-{[(4-chloro-3-methyl-5-isoxazolyl)amino]sulfonyl}2-thiophenecarboxamide]", "values": [
      {"measurement": "melting point", "value": "174 to 176", "unit": "°C"}
    ]},
    {"smiles": "Cc1cc(C)c(NC(=O)c2sccc2S(=O)(=O)Nc2onc(C)c2Cl)c(S(C)(=O)=O)c1", "note": "[Compound 42, 3-{[(4-chloro-3-methyl-5-isoxazolyl)amino]sulfonyl)-N-[2,4-dimethyl-6-(methylsulfonyl)phenyl]-2-thiophenecarboxamide]", "values": [
      {"measurement": "melting point", "value": "208 to 210", "unit": "°C"}
    ]},
    {"smiles": "Cc1cc2c(cc1CC(=O)c1sccc1S(=O)(=O)Nc1onc(C)c1Cl)OCO2", "note": "[N-(4-chloro-3-methyl-5-isoxazolyl)-2-{[3,4-(methylenedioxy)-6-methylphenyl)acetyl]-thiophene-3-sulfonamide, reference compound]", "values": [
      {"measurement": "Acute Hypoxia: dose to achieve 50% inhibition of mean pulmonary artery pressure increase", "setting": "[1]", "value": 2.5, "unit": "mg/kg"}
    ]}
  ]
}
